Publication PMC12736958 (Pharmaceutics, 2025)
Values joined by “and” are separate entries in the source; they are usually repeats but may differ in a detail not shown here. Identical values can stand only once.

What was measured:
[1] = equilibrium solubility of crystalline Cur in excipient solutions; type: physicochemical; conditions: pure water, pH 7.0, 37 °C, filtered 0.22 μm, read-out: equilibrium solubility (Cur con.)
Description: Excess crystalline Cur was suspended in each solution, vortexed (1 min), sonicated (10 min), and incubated (37 °C, 24 h). After incubation, suspensions were filtered (0.22 μm), and Cur concentration in the filtrate was quantified using HPLC/UV-Vis (HPLC/UV-Vis Method section). All experiments were performed in quadruplicate (n = 4).
Cur content in in vitro dissolution samples was quantified using a Waters 2695 Alliance HPLC system (Waters Corporation, Milford, MA, USA) equipped with a Waters 2998 photodiode array (PDA) detector. Separation was performed on an XBridge® C18 column (4.6 × 250 mm, 5.0 μm; Waters) maintained at 25 °C. The mobile phase, composed of water and methanol (80:20, v/v), was delivered isocratically at a flow rate of 1.0 mL/min. The injection volume was 10 μL, and detection was performed at 430 nm, and Cur eluted at approximately 4.80 min. […] All data were acquired in triplicate (n = 3) and processed using Empower®3 Software (Waters).

[2] = cited from earlier work
[3] = in vivo pharmacokinetic study in rats; parameters: species or system Sprague-Dawley (SD) rats; conditions: rat; for plasma concentration of Cur, individual animals: Rat1-Rat5, listed as Intravenous Cur
Description: Male Sprague-Dawley (SD) rats (200 ± 20 g) were supplied by SPF Biotechnology Co., Ltd. (Beijing, China) and housed under standard laboratory conditions throughout the study. All animals were housed in a controlled environment (22 ± 2 °C, 55 ± 10% humidity) under a 12/12 h light/dark cycle, with free access to a standard laboratory rodent diet and water. A 12 h fasting period was implemented prior to the experiment, with water permitted ad libitum. All animal procedures were performed in strict accordance with protocols approved by the Biological and Medical Ethics Committee of Minzu University of China.
After fasting for 12 h (with free access to water), SD rats (n = 25) were randomly divided into five groups (n = 5 per group). Group 1: crystalline Cur (i.v., dissolved in saline with 5% DMSO). Group 2: crystalline Cur (p.o., suspended in 0.5% CMC-Na). Group 3: Cur/P188 ASD (1:8, w/w; p.o.). Group 4: Cur/P188/TW80 ASD (1:8:1, w/w/w; p.o.). Group 5: Cur/P188/SLS ASD (1:8:1, w/w/w; p.o.). Group 1 received the formulation via tail vein injection, while Groups 2–5 were suspended in water (pH 7.0) and administered orally by gavage at a Cur-equivalent dose of 40 mg/kg. Blood samples (0.2 mL) were collected from each rat at 4, 7, 10, 20, and 30 min, and 1, 2, 4, and 24 h post-dosing. Plasma was separated by centrifugation (5000 rpm, 5 min, 4 °C) and stored at −80 °C until analysis.
Cur was extracted from 50 μL of plasma using 600 μL of ethyl acetate and quantified by LC-MS/MS, with diclofenac sodium (20 μL, 200 ng/mL) serving as the internal standard. Blank plasma was obtained from a separate control group (n = 5) that received water only. Analysis of these blank samples confirmed the absence of significant matrix interference, thereby validating the analytical method.
(§1) Cur quantification in cellular and rat plasma samples was carried out using a SCIEX QTRAP® 5500 LC-MS/MS system coupled with a SCIEX ExionLC^TM AC system (AB SCIEX, Framingham, MA, USA).
Separation was achieved on an Acquity UPLC® BEH C18 column (100 × 2.1 mm, 1.7 μm; Waters) maintained at 40 °C. The mobile phase consisted of (A) 0.1% formic acid in water and (B) acetonitrile (ACN), delivered at a flow rate of 0.14 mL/min with the following gradient program: 10% B (0–1.0 min), increased to 95% B (1.0–9.0 min), and returned to 10% B (9.0–12.0 min). The injection volume was 5 μL. The retention times were approximately 4.85 min for Cur and 6.70 min for diclofenac sodium, used as the internal standard (IS).
Mass spectrometric detection was performed using an IonDrive^TM Turbo V ion (SCIEX, Framingham, MA, USA) source operating in negative electrospray ionization (ESI) mode. Quantification was conducted via multiple reaction monitoring (MRM) at m/z 367.1→133.9 for Cur, and m/z 294.1→250.0 for diclofenac sodium (IS). The assay was linear over the concentration range of 2-500 ng/mL (R^2 > 0.999). All data were acquired in triplicate (n = 3) and processed using MultiQuant software version 3.0.2 (AB SCIEX).
Pharmacokinetic parameters were calculated using non-compartmental analysis with DAS 2.0 software (Boying Corporation, Beijing, China). Data analysis was performed using GraphPad Prism 10.1.2 software. The result is expressed as mean ± standard deviation (SD). For pairwise comparisons between groups, t-tests were conducted. For multiple group comparisons, one-way analysis of variance (ANOVA) was performed, followed by Tukey’s post hoc test for multiple comparisons. Prior to ANOVA, the assumptions of normality and homogeneity of variances were verified using the Shapiro–Wilk test and Bartlett’s test, respectively. p < 0.05 indicates statistically significant differences.

[4] = in vitro non-sink dissolution; type: physicochemical; conditions: Cur-equivalent 1 mg/mL, water pH 7.0, 37 °C
Description: (§2) The dissolution behavior of Cur formulations was evaluated under non-sink conditions. Tested formulations included pure amorphous Cur, binary Cur/P188 ASD (1:8, w/w), and ternary Cur/P188/TW80 and Cur/P188/SLS ASDs (1:8:1, w/w/w). Each sample was introduced into 6 mL of water (pH 7.0) to achieve a Cur-equivalent concentration of 1 mg/mL at 37 °C. Aliquots (0.4 mL) were collected at 10, 20, and 45 min, as well as at 1h and 2 h, and immediately centrifuged (10,000 rpm, 3 min, 25 °C) to separate the supernatant from the precipitate. (1) The supernatant was diluted 1:2 (v/v) with methanol and analyzed for Cur concentration via HPLC/UV-Vis; (2) The precipitate was vacuum-dried and analyzed for crystallinity using PXRD.
All dissolution experiments were conducted in triplicate (n = 3).
Cur content in in vitro dissolution samples was quantified using a Waters 2695 Alliance HPLC system (Waters Corporation, Milford, MA, USA) equipped with a Waters 2998 photodiode array (PDA) detector. Separation was performed on an XBridge® C18 column (4.6 × 250 mm, 5.0 μm; Waters) maintained at 25 °C. The mobile phase, composed of water and methanol (80:20, v/v), was delivered isocratically at a flow rate of 1.0 mL/min. The injection volume was 10 μL, and detection was performed at 430 nm, and Cur eluted at approximately 4.80 min. […]

MDCK cells [5] = experiment: cytotoxicity assay (CCK-8 cell viability); type: cell-based, canine; conditions: 4 h treatment
Description: Madin-Darby Canine Kidney (MDCK) cells were seeded in 96-well plates (1 × 10^5 cells/well) and cultured for 24 h at 37 °C in complete DMEM (10% FBS, 1% penicillin–streptomycin) under 5% CO2. Cells were treated for 4 h with 100 µL of complete DMEM media (pH 7.4) containing crystalline Cur, amorphous Cur, binary Cur/P188 ASD (1:8, w/w), or ternary Cur/P188/TW80 or Cur/P188/SLS ASDs (1:8:1, w/w/w), at Cur-equivalent concentrations of 0 (vehicle), 2, 10, 25, 50, 100, and 200 μg/mL. After treatment, cells were washed three times with PBS (pH 7.4). Cell viability was assessed using a CCK-8 assay: 100 µL of serum-free DMEM and 10 µL of CCK-8 reagent were added to each well, followed by incubation for 2 h. Absorbance was measured at 450 nm using a Multiskan GO microplate reader (Thermo Fisher Scientific, Vantaa, Finland).
Cell viability was calculated according to the following equation:Viability (%) = [(As − Aᵦ)/(Ac − Aᵦ)] × 100% where
• As is the absorbance of experimental wells (cells + treatment + CCK-8); • Ac is the absorbance of control wells (cells + medium + CCK-8, no drug); • Aᵦ is the absorbance of blank wells (medium + CCK-8, no cells, no drug).
All experiments were performed in quintuplicate (n = 5).

[6] = PXRD crystallinity of precipitates collected during dissolution; type: physicochemical; conditions: precipitates collected at 20 min and 1 h of non-sink dissolution
Description: PXRD was used to characterize the crystalline nature of both freshly prepared Cur ASDs and precipitates collected during their dissolution. Measurements were conducted on a Rigaku Smartlab diffractometer (Rigaku Corporation, Tokyo, Japan) configured in Bragg–Brentano geometry using Cu Kα1 radiation. Diffractograms were collected over a 2θ range of 0° to 60° with a step size of 0.01°.
as §2

MDCK cells [7] = experiment: cellular uptake study (LC-MS/MS of intracellular Cur); type: cell-based, canine; conditions: 10 min incubation, 5 μg Cur-equivalent (10 μg/mL)
Description: MDCK cells were seeded in 24-well plates and cultured following the procedures described in Cytotoxicity Assay section. The cells were treated with 500 µL of complete DMEM medium (pH 7.4) containing crystalline Cur, amorphous Cur, binary Cur/P188 ASD (1:8, w/w), or ternary Cur/P188/TW80 or Cur/P188/SLS ASDs (1:8:1, w/w/w), at Cur-equivalent dose of 5 µg per well. After 10 min of incubation, the treatment was terminated by immediate removal of the medium. The cells were then washed three times with ice-cold PBS, lysed with 200 µL of 0.1% SDS (assisted by sonication), and dissolved in methanol at a 1:2 (v/v) ratio. The total intracellular Cur content was quantified using LC-MS/MS. All experiments were performed in quadruplicate (n = 4).
as §1
Separation was achieved on an Acquity UPLC® BEH C18 column (100 × 2.1 mm, 1.7 μm; Waters) maintained at 40 °C. […]
Mass spectrometric detection was performed using an IonDrive^TM Turbo V ion (SCIEX, Framingham, MA, USA) source operating in negative electrospray ionization (ESI) mode. Quantification was conducted via multiple reaction monitoring (MRM) at m/z 367.1→133.9 for Cur, and m/z 294.1→250.0 for diclofenac sodium (IS). […]

[8] = male, Sprague-Dawley, plasma, iv, 40 mg/kg Cur-equivalent

COc1cc(/C=C/C(=O)CC(=O)/C=C/c2ccc(O)c(OC)c2)ccc1O [Curcumin]
solubility thermodynamic at 24 h [1]: < 0.1 µg/mL | logP [2]: ≈ 3

COc1cc(/C=C/C(=O)CC(=O)/C=C/c2ccc(O)c(OC)c2)ccc1O [Solution Cur, Curcumin]
Cmax [3, 8]: 334 ± 9.6 ng/mL | Tmax [3, 8]: 6 min | half-life [3, 8]: 1.8 ± 0.2 h | MRT last ([3]; male, Sprague-Dawley, plasma, iv, i.v., 40 mg/kg Cur-equivalent, read-out: MRT(0–24)): 5.2 ± 0.2 h | concentration at 0.07 h ([3]; male, Sprague-Dawley, plasma, iv, 40 mg/kg, i.v., 40 mg/kg, 0.07 h, Rat1-Rat5, read-out: plasma concentration of Cur, individual animals): 331 ng/mL | concentration at 0.12 h ([3]; male, Sprague-Dawley, plasma, iv, 40 mg/kg, i.v., 40 mg/kg, 0.12 h, Rat1-Rat5, read-out: plasma concentration of Cur, individual animals): 261 ng/mL | concentration at 0.17 h ([3]; male, Sprague-Dawley, plasma, iv, 40 mg/kg, i.v., 40 mg/kg, 0.17 h, Rat1-Rat5, read-out: plasma concentration of Cur, individual animals): 220 ng/mL | concentration at 0.33 h ([3]; male, Sprague-Dawley, plasma, iv, 40 mg/kg, i.v., 40 mg/kg, 0.33 h, Rat1-Rat5, read-out: plasma concentration of Cur, individual animals): 181 ng/mL | concentration at 0.5 h ([3]; male, Sprague-Dawley, plasma, iv, 40 mg/kg, i.v., 40 mg/kg, 0.5 h, Rat1-Rat5, read-out: plasma concentration of Cur, individual animals): 160 ng/mL | concentration at 1 h ([3]; male, Sprague-Dawley, plasma, iv, 40 mg/kg, i.v., 40 mg/kg, 1 h, Rat1-Rat5, read-out: plasma concentration of Cur, individual animals): 85.2 ng/mL | concentration at 2 h ([3]; male, Sprague-Dawley, plasma, iv, 40 mg/kg, i.v., 40 mg/kg, 2 h, Rat1-Rat5, read-out: plasma concentration of Cur, individual animals): 50.6 ng/mL | concentration at 4 h ([3]; male, Sprague-Dawley, plasma, iv, 40 mg/kg, i.v., 40 mg/kg, 4 h, Rat1-Rat5, read-out: plasma concentration of Cur, individual animals): 25.9 ng/mL | concentration at 24 h ([3]; male, Sprague-Dawley, plasma, iv, 40 mg/kg, i.v., 40 mg/kg, 24 h, Rat1-Rat5, read-out: plasma concentration of Cur, individual animals): 8.3 ng/mL | plasma concentration of Cur, individual animals ([3]; i.v., 40 mg/kg, 0.07 h): 340.1 ng/mL and 337.1 ng/mL and 323.9 ng/mL and 342.5 ng/mL | plasma concentration of Cur, individual animals ([3]; i.v., 40 mg/kg, 0.12 h): 255.2 ng/mL and 257.9 ng/mL and 258.8 ng/mL and 264.3 ng/mL | plasma concentration of Cur, individual animals ([3]; i.v., 40 mg/kg, 0.17 h): 215.1 ng/mL and 212.7 ng/mL and 219.1 ng/mL and 237.5 ng/mL | plasma concentration of Cur, individual animals ([3]; i.v., 40 mg/kg, 0.33 h): 192.4 ng/mL and 207.1 ng/mL and 170.5 ng/mL and 217.7 ng/mL | plasma concentration of Cur, individual animals ([3]; i.v., 40 mg/kg, 0.5 h): 130.3 ng/mL and 126.5 ng/mL and 120.8 ng/mL and 194.6 ng/mL | plasma concentration of Cur, individual animals ([3]; i.v., 40 mg/kg, 1 h): 96.5 ng/mL and 101.5 ng/mL and 102.2 ng/mL and 65.3 ng/mL | plasma concentration of Cur, individual animals ([3]; i.v., 40 mg/kg, 2 h): 63.9 ng/mL and 65.1 ng/mL and 75.3 ng/mL and 40.5 ng/mL | plasma concentration of Cur, individual animals ([3]; i.v., 40 mg/kg, 4 h): 35.9 ng/mL and 25.7 ng/mL and 32.9 ng/mL and 22.5 ng/mL | plasma concentration of Cur, individual animals ([3]; i.v., 40 mg/kg, 24 h): 10.2 ng/mL and 9.5 ng/mL and 8.5 ng/mL and 8.7 ng/mL

COc1cc(/C=C/C(=O)CC(=O)/C=C/c2ccc(O)c(OC)c2)ccc1O [amorphous Cur, Curcumin]
dissolved Cur concentration reached over 2 h [4]: ~ 1 μg/mL | IC50 (cytotoxicity, Cur-equivalent) (MDCK cells [5]): 54.7 µg/mL | crystallinity of precipitates during dissolution (PXRD) [6]: crystallized immediately upon hydration | cellular uptake (% of the administered dose) (MDCK cells [7]): 1.4%
